PMC8064320, “Modulation of Glycinergic Neurotransmission may Contribute to the Analgesic Effects of Propacetamol” (Biomolecules, 2021)

Tests used:
Assay in all cases: two-electrode voltage clamp, agonist-induced current in oocytes
Type in all cases: cell-based
Conditions in all cases: read-out: Glycine Dose-Response Relationship / EC50, -50 mV, ND96 without Ca2+, pH 7.4, 21-23 °C
[1] = tested on: T1, GlyRα1
T1 construct: gene GLRA1; homomeric receptor (pentamer by known biology); plasmid pNKS2(GlyRα1); cRNA-injected Xenopus laevis oocytes
Text: two-electrode voltage clamp, agonist-induced current in oocytes on GlyRα1

[2] = tested on: T2, GlyRα3
T2 construct: gene GLRA3; subunit expressed individually (homopentamer by known biology); plasmid pNKS2(GlyRα3); cRNA-injected Xenopus laevis oocytes
Text: two-electrode voltage clamp, agonist-induced current in oocytes on GlyRα3

[3] = tested on: T3, GlyRα2
T3 construct: gene GLRA2; subunit expressed individually (homopentamer by known biology); plasmid pNKS2(GlyRα2); cRNA-injected Xenopus laevis oocytes
Text: two-electrode voltage clamp, agonist-induced current in oocytes on GlyRα2

Structure (SMILES): NCC(=O)O [glycine]
- EC50 [1]: 162 µM
- EC50 [2]: 234 µM
- EC50 [3]: 325 µM
